What was measured:
Assay type in all cases: cell-based
[1] = target: T1, human V2R (Homo sapiens, UniProt P30518); test: Detection of AVP and V2R antagonist by desensitization (calcium-containing medium, addition of AVP, then forskolin)
T1 construct: The human vasopressin receptor isoform 2 (V2R) cDNA cloned in pUC18 was recloned into a pEF2 vector to prepare pEFhV2R; expressed in transfected cells; host or cells: CHO cells, transient transfection with FuGENE6, then frozen
From the text: This method utilizes the desensitization of the cAMP dependent calcium channel to detect the activity of a V2R antagonist. […] In this state, the addition of forskolin that activates adenylate cyclase forms cAMP, which in turn activates the cAMP dependent calcium channel (e.g., CNG calcium). Thus, the calcium sensitive protein emits luminescence. […] In this state, the subsequent addition of […] desensitizes the once activated cAMP dependent calcium channel, which is no longer activated by the addition of forskolin.
1 ml (3×10^6 cells/ml) of the frozen cells prepared in 1 was thawed in a warm bath and suspended in 10 mL of a washing buffer. The suspension was centrifuged at 1000 rpm for 5 minutes. 12 mL of a culture buffer was added to the obtained precipitate, and 6 μL of 4 mM ViviRen was added thereto. The mixture was seeded at 50 μL/well into a 96-well plate. […] Subsequently, 10^−4 M forskolin was further added thereto at 50 μL/well, and the amount of luminescence was measured using a luminometer (FIG. 16).

[2] = target: T2, human GLP-1 receptor (Homo sapiens, UniProt P43220, L260F); test: Aequorin luminescence in frozen CHO cell lines expressing human GLP-1 receptor, modified CNG channel and modified aequorin; conditions: even at a concentration 1 million times higher compared with the active forms of GLP-1; FIG. 24
T2 construct: The human GLP-1 receptor (GLP-1R) cDNA cloned in pUC18 was recloned into a pCIneo vector to prepare pCIneoGLP-1R; expressed in transfected cells; host or cells: CHO cell lines, transient transfection with FuGENE6, then frozen
Procedure: 1 ml (3×10^6 cells/ml) of the frozen cells prepared in 1 was thawed in a warm bath and suspended in 10 mL of a washing buffer.
(§1) 1 ml (3×10^6 cells/ml) of the frozen cells prepared in 1 was thawed in a warm bath and suspended in 10 mL of a washing buffer. The suspension was centrifuged at 1000 rpm for 5 minutes. 12 mL of a culture buffer was added to the obtained precipitate, and 6 μL of 4 mM ViviRen was added thereto.

[3] = target: T2, human GLP-1 receptor; test: GLP-1 antagonist activity in CHO cells expressing human GLP-1 receptor, GLP-1 added after culture; conditions: 3 hours culture, then 10^-11 M GLP-1; FIG. 27
Procedure: as §1, with “Next, the activity of a GLP-1 antagonist was measured. 1 ml” for “1 ml”, “added thereto. The mixture was seeded at 90 μL/well into a 96-well plate.” for “added thereto.”
Exendin-4 (9-39) was added thereto at 10 μL/well, and the cells were cultured for 3 hours. 10^−11 M GLP-1 was added thereto at 10 μL/well, and the amount of luminescence was measured using a luminometer.

T2 sequence (P43220 24-463 L260F): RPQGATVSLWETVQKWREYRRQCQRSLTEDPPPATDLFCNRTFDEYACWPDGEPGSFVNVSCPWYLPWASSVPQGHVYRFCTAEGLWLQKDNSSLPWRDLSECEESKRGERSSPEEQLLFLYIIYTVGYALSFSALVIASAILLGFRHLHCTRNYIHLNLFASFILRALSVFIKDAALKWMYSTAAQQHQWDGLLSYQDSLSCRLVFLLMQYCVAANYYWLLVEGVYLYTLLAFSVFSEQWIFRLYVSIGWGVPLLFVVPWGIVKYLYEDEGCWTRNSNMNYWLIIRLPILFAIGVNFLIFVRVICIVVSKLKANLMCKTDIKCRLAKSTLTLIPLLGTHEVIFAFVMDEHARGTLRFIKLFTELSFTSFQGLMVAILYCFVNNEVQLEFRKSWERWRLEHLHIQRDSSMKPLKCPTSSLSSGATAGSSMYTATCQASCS
T1 sequence (P30518 1-309 isoform P30518-2): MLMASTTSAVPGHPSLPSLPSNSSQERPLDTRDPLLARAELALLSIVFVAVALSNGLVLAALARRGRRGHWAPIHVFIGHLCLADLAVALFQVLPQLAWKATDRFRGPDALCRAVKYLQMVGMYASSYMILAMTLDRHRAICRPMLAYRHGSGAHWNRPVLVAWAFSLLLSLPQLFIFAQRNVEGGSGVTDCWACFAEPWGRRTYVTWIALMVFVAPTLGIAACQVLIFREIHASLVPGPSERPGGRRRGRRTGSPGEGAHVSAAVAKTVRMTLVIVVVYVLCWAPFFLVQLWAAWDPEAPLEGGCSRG

Cc1ccccc1C(=O)Nc1ccc(C(=O)N2CCCC(O)c3cc(Cl)ccc32)c(C)c1 (stereo not drawn) [OPC-41061]
luminescence of forskolin after antagonist and AVP ([1]; 10^-7 M AVP, then 10^-4 M forskolin, FIG. 16): the luminescence of forskolin was detected in a concentration dependent manner | inhibition of the action of added AVP (amount of luminescence) ([1]; cells cultured 3 hours with compound in calcium-containing medium, then 10^-7 M AVP, FIG. 14): inhibited the action of added AVP in a concentration dependent manner

GIP: incretin acting on other receptors
reactivity of the kit [2]: hardly reacted

GLP-1 (9-36 amide)
reactivity of the kit [2]: hardly reacted

GLP-2: incretin acting on other receptors
reactivity of the kit [2]: hardly reacted

exendin-4 (9-39): GLP-1 receptor antagonist
inhibition of the agonistic action of added GLP-1 [3]: inhibited the agonistic action of added GLP-1 in a concentration dependent manner

Source: US9316588B2, “Bioassay method for detecting physiologically active substance” (OTSUKA PHARMACEUTICAL CO., LTD., priority 2010, dated 2016)
